From US20080280953A1, “Agents Used for the Treatment of Seeds” (Bayer Cropscience AG, priority 2004, published 2008)
Several values for one entry are separate records, joined by “and”; a condition that tells them apart may be missing. Identical values can stand only once.

Tested on: leafminer fly (Liriomyza trifolii) larvae
Test: Liriomyza trifolii test, spraying of kidney bean plants
Format: in vivo
Settings: 100 ppm, spray on kidney bean plants
Method: To prepare a suitable active compound preparation 1 part by weight of the active compound is mixed with the given amount of solvent and emulsifier and the concentrate is diluted to the desired concentration with water containing emulsifier.
Kidney bean plants (Phaseolus vulgaris) that are infected with the larvae of the leafminer fly (Liriomyza trifolii) are treated by spraying with the active compound mixture at the desired concentration.
After the desired time the activity in % is determined.

## CN(Cc1ccc(Cl)nc1)C1=CC(=O)OC1 [Compound 84]
  Activity in % after 7 d: 55% and 46%
